Results on one molecule are retold here after patent publication US6420427B1, “Aminobutyric acid derivatives” (Ono Pharmaceutical Co., Ltd., priority 1997, dated 2002).

Common to all, as to format: biochemical
Assay [1] deals with T1, collagenase (Homo sapiens, UniProt P03956).
T1 construct: endogenous in cells; host or cells: human normal skin dermal fibroblasts (HNDF)
T1 sequence (P03956 100-469): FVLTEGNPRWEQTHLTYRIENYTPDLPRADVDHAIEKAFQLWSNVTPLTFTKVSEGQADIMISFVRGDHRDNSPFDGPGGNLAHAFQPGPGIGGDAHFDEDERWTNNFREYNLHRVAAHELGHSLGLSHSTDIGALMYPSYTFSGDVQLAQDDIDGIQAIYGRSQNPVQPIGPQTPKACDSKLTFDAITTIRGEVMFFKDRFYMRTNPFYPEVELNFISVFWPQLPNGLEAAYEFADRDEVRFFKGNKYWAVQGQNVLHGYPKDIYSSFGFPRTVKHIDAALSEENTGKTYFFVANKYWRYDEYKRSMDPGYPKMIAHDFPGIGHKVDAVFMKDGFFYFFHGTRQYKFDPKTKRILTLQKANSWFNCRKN
In words: Inhibitory activity against collagenase. The conditions noted are these: procollagenase from HNDF, trypsin-activated; thioester substrate 1.33 mM, 26° C., absorption at 324 nm. As to the method:
(2) Inhibitory Activity Against Collagenase
The procollagenase (5 μl; in assay buffer (105 μl)) was purified from human normal skin dermal fibroblasts (HNDF). It was activated by the addition of 1 mg/ml Trypsin (45 μl) for 1 minute at 37° C. Trypsin was inactivated by addition of 5 mg/ml soybean trypsin inhibitor (SBTI; 50 μl).
A mixture of the synthetic substrate (Ac-Pro-Leu-Gly-[2-mercapto-4-methyl-pentanoyl]-Leu-Gly-OEt) (105 μl; a final concentration 1.33 mM) and a solution (20 μl) with or without various concentrations of the test compound was preincubated for 5 minutes at 26° C.
The solution of activated enzyme (75 μl/tube, 50 μl) was mixed with the mixture and the mixture was incubated for 10 minutes at 26° C.
Absorption at 324 nm was measured at 40 points over 10 minutes. Vmax value was determined as measured value in 30 points therein.

Assay [2] addresses T2, human stromelysin (Homo sapiens, UniProt P08254).
T2 construct: purchased Yagai
The assay can be described thus: Inhibitory activity against stromelysin. The conditions noted are these: APMA-activated, substrate NFF-3, pH 7.5, 37° C. As for the experimental part:
(3) Inhibitory Activity Against Stromelysin ps [Method]
The mixture of human stromelysin (Yagai; 9 volume) and 10 mM p-aminophenylmercury acetate (1 volume) was activated for 20 hours at 37° C. A solution of the test compound in dimethylsulfoxide (10 μl) and 0.5 mM solution (10 μl) of 10 mM solution of the synthetic substrate NFF-3 (Mca-Arg-Pro-Lys-Pro-Val-Glu-Nva-Trp-Arg-Lys(DNP)-NH2., Nva: norvaline, Peptide Laboratory) in dimethylsulfoxide diluted by water were added to assay buffer (50 mM tris-HCl, 10 mM CaCl2, 0.05% Brij35, 0.02% NaN3 (pH 7.5)) (150 μl). Furthermore, assay buffer (30 μl) was added to the mixture. The mixture was incubated for 10 minutes at 37° C. The reaction was started by addition of a solution of the above activated stromelysin solution (50 μl). The enzyme activity was represented by increasing value of fluorescent intensity [Ex=325 nm (Ex)/393 nm (Em)] per 1 minute. Inhibitory activity was represented by inhibitory percentage (%) per enzyme activity without the test compound.

Assay [3] concerns the target T3, gelatinase A (Homo sapiens, UniProt P08253).
T3 construct: endogenous in cells; host or cells: human normal skin dermal fibroblasts (HNDF)
T3 sequence (P08253 110-660): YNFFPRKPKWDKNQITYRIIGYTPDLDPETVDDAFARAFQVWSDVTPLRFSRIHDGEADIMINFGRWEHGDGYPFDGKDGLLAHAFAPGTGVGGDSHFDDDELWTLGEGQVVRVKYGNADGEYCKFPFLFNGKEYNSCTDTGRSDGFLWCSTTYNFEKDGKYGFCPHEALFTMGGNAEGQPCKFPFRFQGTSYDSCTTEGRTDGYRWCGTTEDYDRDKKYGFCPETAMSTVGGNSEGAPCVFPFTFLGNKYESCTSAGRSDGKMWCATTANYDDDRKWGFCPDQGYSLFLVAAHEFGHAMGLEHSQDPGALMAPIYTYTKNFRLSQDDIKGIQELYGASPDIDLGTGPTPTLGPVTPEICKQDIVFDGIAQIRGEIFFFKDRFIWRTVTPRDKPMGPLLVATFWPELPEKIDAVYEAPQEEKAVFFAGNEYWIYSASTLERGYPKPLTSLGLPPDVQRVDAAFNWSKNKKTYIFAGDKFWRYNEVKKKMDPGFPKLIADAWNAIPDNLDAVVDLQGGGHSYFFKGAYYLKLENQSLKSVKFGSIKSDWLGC
In words: Inhibitory activity against gelatinase A. The following applies: progelatinase A from human normal skin dermal fibroblasts (HNDF), APMA-activated; fluorogenic substrate MOCAc-Pro-Leu-Gly-A2pr(Dnp)-Ala-Arg-NH2 13.5 μM, 37° C. As for the experimental part:
(1) Inhibitory Activity Against Gelatinase A
The progelatinase A (5 μl; in assay buffer (40 μl)) was purified from human normal skin dermal fibroblasts (HNDF). It was activated by the addition of 10 mM of p-aminophenylmercuric acetate (APMA) ([…]) for 1 hour at 37° C.
A mixture of the synthetic substrate (MOCAc-Pro-Leu-Gly-A2pr(Dnp)-Ala-Arg-NH2) (130 μl; a final concentration 13.5 μM) and a solution (20 μl) with or without various concentrations of the test compound was preincubated for 5 minutes at 37° C.
The solution of activated gelatinase A (50 μl/well) was mixed with the mixture and the mixture was incubated for 15 minutes at 37° C. The enzyme reaction was started. The enzyme activity was represented by increasing value of fluorescent intensity [Ex=325 nm (Ex)/393 nm (Em)] per 1 minute. Inhibitory activity was represented by inhibitory percentage (%) per enzyme activity without the test compound. For example, IC50 of the compound as Example 71 is 0.50 nM.

T2 sequence (P08254 100-477): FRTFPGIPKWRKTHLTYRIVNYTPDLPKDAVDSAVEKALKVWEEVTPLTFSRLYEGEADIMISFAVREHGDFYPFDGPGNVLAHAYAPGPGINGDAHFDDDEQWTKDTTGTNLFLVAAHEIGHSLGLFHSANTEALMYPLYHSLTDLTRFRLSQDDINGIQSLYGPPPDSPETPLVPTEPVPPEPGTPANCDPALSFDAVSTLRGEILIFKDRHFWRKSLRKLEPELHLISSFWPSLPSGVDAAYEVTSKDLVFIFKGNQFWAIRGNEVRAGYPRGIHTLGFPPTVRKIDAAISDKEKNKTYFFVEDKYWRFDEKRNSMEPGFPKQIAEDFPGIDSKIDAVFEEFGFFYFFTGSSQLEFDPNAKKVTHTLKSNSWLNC

`CCOCOC[C@H](C[C@H](C)C(=O)NO)NC(=O)c1ccc(Oc2ccccc2)cc1` [Example 71, N-Hydroxy-2(S)-methyl-5-ethoxymethoxy-4(S)-[N-(4-phenoxyphenylcarbonyl)-amino]pentanamide]: the IC50 (as a rule, the concentration needed to halve the response being measured) worked out at 2500 nM in assay [1], 26 nM in assay [2] and 0.5 nM in assay [3].
